Measurements as given in PMC7894426, “Influence of verapamil on the pharmacokinetics of rotundic acid in rats and its potential mechanism” (Pharmaceutical Biology, 2021).
Read-outs that look alike come from different tables or passages of the source.

Columns and labels:
CYP2C9 = target: T1, CYP2C9 (Homo sapiens, UniProt P11712); experiment: Metabolic depletion of RA by rhCYP2C9; assay type: in vitro ADME; conditions: rhCYP2C9 25 pM, RA 2 µM, 30 min
T1 construct: purchased Research Institute for Liver Disease (Shanghai) Co., Ltd
T1 sequence (P11712 whole entry): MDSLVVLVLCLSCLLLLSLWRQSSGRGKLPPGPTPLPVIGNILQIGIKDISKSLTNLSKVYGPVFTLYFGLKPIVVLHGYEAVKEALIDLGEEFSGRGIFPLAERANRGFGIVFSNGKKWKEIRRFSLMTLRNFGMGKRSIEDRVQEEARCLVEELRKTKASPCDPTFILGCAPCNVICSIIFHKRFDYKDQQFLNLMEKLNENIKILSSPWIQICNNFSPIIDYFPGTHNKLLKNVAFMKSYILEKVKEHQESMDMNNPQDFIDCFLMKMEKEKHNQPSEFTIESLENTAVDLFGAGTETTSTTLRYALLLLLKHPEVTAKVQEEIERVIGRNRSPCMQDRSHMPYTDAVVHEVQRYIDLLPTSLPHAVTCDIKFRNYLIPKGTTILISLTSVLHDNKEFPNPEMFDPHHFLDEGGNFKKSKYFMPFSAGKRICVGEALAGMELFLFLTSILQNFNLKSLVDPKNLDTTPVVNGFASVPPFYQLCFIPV
Experimental: (§1) The metabolic stability of RA was evaluated against five rhCYPs (1A2, 2C8, 2C9, 2D6 and 3A4). Incubation was taken place in 0.1 M sodium phosphate buffer (pH 7.4) containing 5 mM MgCl2, 1 mM NADPH, and 25 pM rhCYP enzyme protein at 37 °C in a total volume of 1 mL. After pre-incubated for 5 min, the reactions were started by the addition of RA methanol solution (final concentration of 2 µM). Aliquots of 50 µL incubation solution were collected from the reaction at 0, 5, 10, 20 and 30 min, and quenched with 50 µL ice-cold methanol (containing 0.5% formic acid) and 100 µL ice-cold acetonitrile containing IS (10 ng/mL). The heat-inactivated rhCYP3A4 were used as negative controls. All reactions were conducted in triplicate, followed by LC-MS/MS analysis. Results presented in percentage of drug remaining in incubation starting at 100% at time zero.

[1] = Bidirectional transport across Caco-2 cell monolayer; assay type: in vitro ADME, human; conditions: human, pH 7.4, Caco-2, 25 µM RA, without verapamil
Experimental: The qualified monolayers were used for transport studies. […] Each experiment was carried out in triplicate.

MDCKII-Mock cells = experiment: MTS cell-proliferation assay; assay type: cell-based, canine; conditions: 25 µM RA
rat liver microsomes = experiment: Metabolic stability in rat liver microsomes with or without verapamil; assay type: in vitro ADME; conditions: heat-inactivated microsomes, RA 2 µM
Experimental: (§2) Low metabolic stability is a major barrier to further improve the oral bioavailability of the herb drugs. To gauge the medicinal chemistry value of RA, we evaluated their metabolic stability in RLMs with or without verapamil. The in vitro microsomal stability assay was conducted in triplicate in rat liver microsomal systems, which were supplemented with NADPH as a cofactor. The assay conditions and reaction mixtures were similar to the previous report with minor modifications (Li et al. [2016]; Sun et al. [2019]). Briefly, the incubation system (final volume of 1 mL) consisted of 1 mg/mL rat liver microsomal protein, 1 mM NADPH, and 5 mM MgCl2 in 0.1 M sodium phosphate buffer (pH 7.4). The incubation system was pre-incubated at 37 °C for 15 min and initiated by adding RA methanol solution (final concentration of 2 µM). The effects of verapamil on the metabolic stability of RA were investigated by adding 50 µM of verapamil (Ma et al. [2000]; Lee and Kim [2013]; Dinger et al. [2014]) to RLMs and pre-incubating for 15 min at 37 °C. The final concentration of methanol (used for dissolving the substrate and inhibitor) was lower than 1% (v/v). Negative control was performed in parallel in a heat-inactivated liver microsomes incubation system to measure any chemical instability or non-enzymatic degradation. Aliquots of 50 µL incubation solution were collected from the reaction at 0, 5, 15, 30 and 60 min, and quenched with 50 µL ice-cold methanol (containing 0.5% formic acid) and 100 µL ice-cold acetonitrile containing IS (10 ng/mL). The samples were then vortexed for 1 min and centrifuged at 12,000 rpm for 10 min at 4 °C. The supernatants were collected and analyzed by LC-MS/MS.
(§3) Substrate depletion and in vitro half-life (t1/2) are common descriptors for metabolic stability. The t1/2 is calculated by the substrate disappearance. The obtained concentration value for time t is divided by the value for time zero and then multiplied by a factor of 100, which represents the ‘% Remaining’ to provide the relative remaining substrate level for the time t. The natural logarithm (ln) of the ‘% Remaining’ of RA was plotted against the incubation time (in min) using linear regression.
(§4) Where, ke, the elimination rate constant, is the slope of a linear regression curve in a semilog plot. Data were collected from triplicate experiments.

[2] = as above; assay type: in vitro ADME; conditions: rat, liver microsomes, RLMs 1 mg/mL, RA 2 µM; for k el at 2 µM: read-out: ke (converted)
Experimental: as §2, §3, §4

CYP1A2 = target: T2, CYP1A2 (Homo sapiens, UniProt P05177); experiment: Metabolic depletion of RA by rhCYP1A2; assay type: in vitro ADME; conditions: rhCYP1A2 25 pM, RA 2 µM, 30 min
T2 construct: purchased Research Institute for Liver Disease (Shanghai) Co., Ltd
T2 sequence (P05177 1-516): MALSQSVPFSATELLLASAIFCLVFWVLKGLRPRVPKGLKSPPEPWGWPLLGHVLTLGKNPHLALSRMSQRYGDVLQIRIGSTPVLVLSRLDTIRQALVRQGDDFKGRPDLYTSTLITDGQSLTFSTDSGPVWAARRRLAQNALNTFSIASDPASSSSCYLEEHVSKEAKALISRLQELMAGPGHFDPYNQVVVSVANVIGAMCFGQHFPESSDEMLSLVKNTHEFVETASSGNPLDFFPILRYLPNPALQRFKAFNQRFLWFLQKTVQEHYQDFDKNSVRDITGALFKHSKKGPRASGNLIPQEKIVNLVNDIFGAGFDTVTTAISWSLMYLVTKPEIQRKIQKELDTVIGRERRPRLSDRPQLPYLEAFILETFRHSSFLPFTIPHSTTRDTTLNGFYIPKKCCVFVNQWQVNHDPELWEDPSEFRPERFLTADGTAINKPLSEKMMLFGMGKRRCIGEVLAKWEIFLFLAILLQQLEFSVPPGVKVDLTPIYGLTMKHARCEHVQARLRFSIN
Experimental: as §1

P-gp = P-gp (Homo sapiens, UniProt P08183); experiment: Bidirectional transport across MDCKII-MDR1 cell monolayers (P-gp substrate assessment); conditions: dog, MDCK-MDR1, pH 7.4
Sequence of P-gp (P08183 whole entry): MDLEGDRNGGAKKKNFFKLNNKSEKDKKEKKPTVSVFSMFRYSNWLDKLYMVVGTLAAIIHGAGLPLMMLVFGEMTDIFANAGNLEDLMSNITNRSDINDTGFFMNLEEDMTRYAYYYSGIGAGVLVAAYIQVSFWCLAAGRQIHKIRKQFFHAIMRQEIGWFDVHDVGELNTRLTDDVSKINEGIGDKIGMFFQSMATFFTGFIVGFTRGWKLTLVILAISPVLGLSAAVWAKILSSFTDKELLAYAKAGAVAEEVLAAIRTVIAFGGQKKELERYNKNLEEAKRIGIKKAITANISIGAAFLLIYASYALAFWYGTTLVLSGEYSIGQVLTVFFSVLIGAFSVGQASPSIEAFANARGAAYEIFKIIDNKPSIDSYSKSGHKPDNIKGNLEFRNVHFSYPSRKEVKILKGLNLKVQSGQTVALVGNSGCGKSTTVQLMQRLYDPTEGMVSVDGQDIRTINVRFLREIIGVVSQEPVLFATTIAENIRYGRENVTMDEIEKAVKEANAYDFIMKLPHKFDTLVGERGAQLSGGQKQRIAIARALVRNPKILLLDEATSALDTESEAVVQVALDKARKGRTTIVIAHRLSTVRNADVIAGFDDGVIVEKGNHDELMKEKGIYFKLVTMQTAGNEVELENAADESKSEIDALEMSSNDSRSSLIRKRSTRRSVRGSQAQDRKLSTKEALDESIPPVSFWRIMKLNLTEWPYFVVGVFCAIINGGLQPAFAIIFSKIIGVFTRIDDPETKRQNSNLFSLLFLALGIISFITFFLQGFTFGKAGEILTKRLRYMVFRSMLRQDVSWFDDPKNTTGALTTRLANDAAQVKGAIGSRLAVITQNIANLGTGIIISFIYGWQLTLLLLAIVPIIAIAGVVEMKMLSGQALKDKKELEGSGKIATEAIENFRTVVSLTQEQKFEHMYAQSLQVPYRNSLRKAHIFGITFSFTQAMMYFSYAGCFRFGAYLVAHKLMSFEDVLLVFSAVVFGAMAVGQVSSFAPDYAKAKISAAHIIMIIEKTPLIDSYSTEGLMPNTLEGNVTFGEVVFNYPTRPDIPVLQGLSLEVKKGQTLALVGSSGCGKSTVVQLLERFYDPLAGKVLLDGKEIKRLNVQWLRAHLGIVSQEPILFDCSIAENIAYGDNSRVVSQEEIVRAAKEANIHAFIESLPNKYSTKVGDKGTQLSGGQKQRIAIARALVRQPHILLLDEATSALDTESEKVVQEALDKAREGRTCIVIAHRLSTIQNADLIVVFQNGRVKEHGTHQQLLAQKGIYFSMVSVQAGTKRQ
Experimental: MDCKII-Mock and MDCKII-MDR1 cells were given as a gift by Fuji Biomedix Co., Ltd. (Japan) and cultured in DMEM supplemented with 10% FBS and 1% antibiotic (10,000 U/mL penicillin and 10 mg/mL streptomycin). Caco-2 cell line, the human epithelial cell used in this assay, was purchased from the Cell Bank of the Chinese Academy of Sciences (Shanghai, China) and maintained between 30 and 45 passages. It was cultured according to the previous report (Guo et al. [2018]; Xiang et al. [2020]). Briefly, the Caco-2 cells were cultured in DMEM supplemented with 10% FBS, 1% NEAA, and 1% antibiotic (10,000 U/mL penicillin and 10 mg/mL streptomycin). All cells were maintained in a 5% CO2 atmosphere and 90% relative humidity at 37 °C.
For transport studies, the MDCKII-Mock, MDCKII-MDR1, and Caco-2 cells were seeded at a density of 2 × 10^5 cells/mL on Costar Transwell inserts (1.12 cm^2 surface, polycarbonate, 12 mm diameter, 0.4 µm pore size). MDCKII-Mock and MDCKII-MDR1 cells were cultured for 5–7 days in medium, for the first four days, the medium was replaced freshly every two days, and then daily. The Caco-2 cells were cultured for 19–21 days in the medium. For the first 2 weeks, the medium was replaced freshly every two days, and then daily. […] The transepithelial electrical resistance (TEER) of the monolayer cells was measured by Millcell ERS-2 (Millipore, USA), and only the monolayer with TEER exceeding 150 Ω·m^2 (MDCKII-Mock and MDCKII-MDR1 cells) and 400 Ω·m^2 (Caco-2 cells) were used for the transport experiment. The membrane integrity and transport function of MDCKII-Mock, MDCKII-MDR1, and Caco-2 cell monolayers were further verified with Lucifer yellow and Rhodamine-123. The qualified monolayers were used for transport studies.
Before the transport studies, the media in both chambers of the transwell were replaced by warm (37 °C) Hank’s balanced salt solution (HBSS), and then the MDCKII-Mock, MDCKII-MDR1, and Caco-2 cell monolayers were incubated at 37 °C and 5% CO2 for 20 min. […] Our transport studies included absorptive direction transport from the apical (AP) side to the basolateral (BL) side and secretory direction transport from the BL side to the AP side. […] After administration, the transwell plate was placed in a thermostatic oscillator shaking at 60 rpm and 37 °C. At 10, 20, 40 and 60 min, respectively, 50 µL incubating sample aliquot was collected from the receiver chamber and immediately replaced by the same volume of fresh HBSS (37 °C). In addition, the membrane integrity of MDCKII-Mock, MDCKII-MDR1, and Caco-2 cell monolayers were evaluated with Lucifer yellow (30 µM) and TEER value, and the efflux activity of P-gp was validated using a typical P-gp substrate rhodamine-123 (10 µM).
The parameters Papp, RE, and NRE were calculated using the following equation: Papp=(ΔQ/Δt)×[1/(A×C0)]

[3] = pH 7.4, with verapamil 50 µM, pre-treatment of verapamil 50 µM

RA converted (CYP2C9): 41.4%
efflux ratio at 25 µM ([1]; 10–60 min, read-out: Papp (BL→AP) relative to Papp (AP→BL)): 2
Papp A→B at 10 min, 25 µM ([1]; 10 min): 0.468 ± 0.0625 ×10⁻⁶ cm/s
Papp B→A at 10 min, 25 µM ([1]; 10 min): 3.25 ± 0.35 ×10⁻⁶ cm/s
efflux ratio at 10 min, 25 µM ([1]; 10 min, read-out: RE (efflux ratio)): 6.93
Papp A→B at 20 min, 25 µM ([1]; 20 min): 0.776 ± 0.128 ×10⁻⁶ cm/s
Papp B→A at 20 min, 25 µM ([1]; 20 min): 5.45 ± 0.806 ×10⁻⁶ cm/s
efflux ratio at 20 min, 25 µM ([1]; 20 min, read-out: RE (efflux ratio)): 7.02
Papp A→B at 40 min, 25 µM ([1]; 40 min): 2.8 ± 0.467 ×10⁻⁶ cm/s
Papp B→A at 40 min, 25 µM ([1]; 40 min): 7.13 ± 0.36 ×10⁻⁶ cm/s
efflux ratio at 40 min, 25 µM ([1]; 40 min, read-out: RE (efflux ratio)): 2.55
Papp A→B at 60 min, 25 µM ([1]; 60 min): 2.84 ± 0.441 ×10⁻⁶ cm/s
Papp B→A at 60 min, 25 µM ([1]; 60 min): 6.56 ± 0.941 ×10⁻⁶ cm/s
efflux ratio at 60 min, 25 µM ([1]; 60 min, read-out: RE (efflux ratio)): 2.31
degradation in negative control (rat liver microsomes): No obvious degradation
half-life at 2 µM [2, 3]: 58.2 ± 5.17 min
microsomal CLint at 2 µM [2, 3]: 12 ± 1.06 µL/min/mg
k el at 2 µM [2, 3]: 0.0002 s⁻¹
half-life at 2 µM ([2]; pH 7.4, control): 14.3 ± 0.941 min
microsomal CLint at 2 µM ([2]; pH 7.4, control): 48.5 ± 3.18 µL/min/mg
k el at 2 µM ([2]; pH 7.4, control): 0.000808 s⁻¹
metabolism of RA (substrate depletion) (CYP1A2): hardly metabolized
Papp A→B at 20 min (P-gp): 4.22 ± 0.611 ×10⁻⁶ cm/s
Papp B→A at 20 min (P-gp): 12.1 ± 1.55 ×10⁻⁶ cm/s
efflux ratio at 20 min (P-gp): 2.87
SMILES: C[C@@H]1CC[C@]2(C(=O)O)CC[C@]3(C)C(=CC[C@@H]4[C@@]5(C)CC[C@H](O)[C@@](C)(CO)[C@@H]5CC[C@]43C)[C@@H]2[C@]1(C)O [RA, Rotundic acid]
effect on cell proliferation (MTS) (MDCKII-Mock cells): did not influence the cell proliferation
